Assay results from US12054498B2, “Heteroaromatic macrocyclic ether chemotherapeutic agents” (Nuvalent, Inc., priority 2020, dated 2024).

What was measured:
[1] = target: T1, Ba/F3 cells CD74-ROS1 wild-type (wt) (Homo sapiens, UniProt P08922); assay: Ba/F3 cell proliferation assay, CD74-ROS1 wild-type; type: cell-based; details: 72 hours, CellTiter-Glo
T1 construct: fusion of the C-terminus of ROS1 with the N-terminus of various partner proteins; host or cells: Ba/F3 (RIKEN), retroviral pMSCV-puro; the other entry of the earlier key: CD74 (P04233, HLA class II histocompatibility antigen gamma chain)
Procedure, shortened: (§1)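 Cells seeded 1 day, then treated with 3-fold compound dilutions for 72 h; viability by CellTiter-Glo luminescence. IC50 from percent inhibition by four-parameter logistic fit.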

TRKA-wt = target: T2, TRKA-wt (Homo sapiens, UniProt P04629); assay: Biochemical kinase assay, TRKA-wt kinase domain; details: apparent inhibitory constant, Morrison equation; ATP 2 mM in substrate solution; read-out: TRKA-wt Ki^app
T2 construct: or TRKA-wt (1 nM, BPS Bio, 40280) kinase domains in buffer; purchased BPS Bio 40280
Procedure, shortened: (§2)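 Apparent Ki values come from fitting initial reaction rates against inhibitor concentration to the Morrison equation. Rates were taken from the linear phase of fluorogenic substrate phosphorylation (AQT0101 for ALK and ROS1, AQT0104 for TRKA; 26 μM in substrate solution with 2 mM ATP), monitored at 485 nm over 120 min at 30° C.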

[2] = target: T3, Ba/F3 cells EML4-ALK wt (variant 1) (Homo sapiens, UniProt Q9UM73); assay: Ba/F3 cell proliferation assay, EML4-ALK wt (variant 1); type: cell-based; details: 72 hours, CellTiter-Glo
T3 construct: echinoderm microtubule-associated protein-like 4 (EML4) gene and the ALK tyrosine kinase domain; host or cells: Ba/F3 (RIKEN), retroviral pMSCV-puro; the other entry of the earlier key: EML4 (Q9HC35, Echinoderm microtubule-associated protein-like 4)
Procedure, shortened: (§3)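 Ba/F3 lines stably expressing the fusion (retroviral pMSCV-puro, selected by IL-3 withdrawal plus puromycin 0.8 μg/mL, monoclonal) were seeded at 1,000 cells/well, dosed next day with 3-fold compound dilutions, and incubated 72 hours. CellTiter-Glo luminescence gave percent inhibition; IC50 by four-parameter logistic fit.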

[3] = system: TPM3-NTRK1-wt IC50 / primary target IC50 (e.g. CD74-ROS1-wt); assay: TRKA selectivity in Ba/F3 cells (TRKA potency divided by primary target potency); type: cell-based; details: for TPM3-NTRK1-wt/CD74-ROS1-G2032R selectivity ratio: TRKA potency / CD74-ROS1-G2032R potency; for TPM3-NTRK1-wt/CD74-ROS1-wt selectivity ratio: TRKA potency / CD74-ROS1-wt potency; for TPM3-NTRK1-wt/EML4-ALK-L1196M-G1202R selectivity ratio: TRKA potency / EML4-ALK-L1196M-G1202R potency; for TPM3-NTRK1-wt/EML4-ALK-wt selectivity ratio: TRKA potency / EML4-ALK-wt potency
Description: TRKA selectivity was calculated by dividing a compound's TRKA potency by its primary target potency (e.g. TPM3-NTRK1-wt IC50/CD74-ROS1-wt IC50). Compound selectivity can be interpreted by binning ratio values: bin A for very high selectivity, ratio >30-fold; bin B for high selectivity, ratio >10-fold; bin C for moderate selectivity, ratio ≥1; and bin D for low selectivity, ratio <1. […] (nd=not determined).

ALK L1196M/G1202R = target: T4, ALK L1196M/G1202R (Homo sapiens, UniProt Q9UM73, G1202R/L1196M); assay: Biochemical kinase assay, ALK L1196M/G1202R kinase domain; details: apparent inhibitory constant, Morrison equation; ATP 2 mM in substrate solution; read-out: ALK-L1196M-G1202R Ki^app
T4 construct: purchased SignalChem A19-12NG
Procedure, shortened: as §2

ROS1-wt = target: T5, ROS1-wt (Homo sapiens, UniProt P08922); assay: Biochemical kinase assay, ROS1-wt kinase domain; details: apparent inhibitory constant, Morrison equation; ATP 2 mM in substrate solution; read-out: ROS1-wt Ki^app
T5 construct: purchased Carna 08-163
Procedure, shortened: (§4)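 Compounds, as 100-fold DMSO stocks, were dispensed first, then substrate mix was added (ATP 2 mM, AQT0101 26 μM, in 50 mM HEPES pH 7.5/10 mM MgCl2). Reactions ran at 30 °C with fluorescence logged every 2 min over 120 min. Apparent inhibition constants came from fitting rates to Morrison's tight-binding equation.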

ALK-wt = target: T6, ALK-wt (Homo sapiens, UniProt Q9UM73); assay: Biochemical kinase assay, ALK-wt kinase domain; details: apparent inhibitory constant, Morrison equation; ATP 2 mM in substrate solution; read-out: ALK-wt Ki^app
T6 construct: purchased Carna 08-518
Procedure, shortened: as §2

Ba/F3 cells TPM3-TRKA = target: T7, Ba/F3 cells TPM3-TRKA (Homo sapiens, UniProt P04629); assay: Ba/F3 cell proliferation assay, TPM3-TRKA; type: cell-based; details: 72 hours, CellTiter-Glo, read-out: TPM3-NTRK1-wt IC50
T7 construct: host or cells: Ba/F3 (RIKEN), retroviral pMSCV-puro; the other entry of the earlier key: TPM3 (P06753, Tropomyosin alpha-3 chain)
Procedure, shortened: as §3

[4] = target: T8, Ba/F3 cells CD74-ROS1 G2032R (Homo sapiens, UniProt P08922, G2032R); assay: Ba/F3 cell proliferation assay, CD74-ROS1 G2032R; type: cell-based; details: 72 hours, CellTiter-Glo
T8 construct: fusion of the C-terminus of ROS1 with the N-terminus of various partner proteins; host or cells: Ba/F3 (RIKEN), retroviral pMSCV-puro; the other entry of the earlier key: CD74 (P04233, HLA class II histocompatibility antigen gamma chain)
Procedure, shortened: as §1

ROS1-G2032R = target: T9, ROS1-G2032R (Homo sapiens, UniProt P08922, G2032R); assay: Biochemical kinase assay, ROS1-G2032R kinase domain; details: apparent inhibitory constant, Morrison equation; ATP 2 mM in substrate solution; read-out: ROS1-G2032R Ki^app
T9 construct: purchased SignalChem R14-12BG
Procedure, shortened: as §4

[5] = target: T10, Ba/F3 cells EML4-ALK L1196M/G1202R (variant 1) (Homo sapiens, UniProt Q9UM73, G1202R/L1196M); assay: Ba/F3 cell proliferation assay, EML4-ALK L1196M/G1202R (variant 1); type: cell-based; details: 72 hours, CellTiter-Glo
T10 construct: echinoderm microtubule-associated protein-like 4 (EML4) gene and the ALK tyrosine kinase domain; host or cells: Ba/F3 (RIKEN), retroviral pMSCV-puro; the other entry of the earlier key: EML4 (Q9HC35, Echinoderm microtubule-associated protein-like 4)
Procedure, shortened: as §3

T5 sequence (P08922 1945-2222 limits assumed): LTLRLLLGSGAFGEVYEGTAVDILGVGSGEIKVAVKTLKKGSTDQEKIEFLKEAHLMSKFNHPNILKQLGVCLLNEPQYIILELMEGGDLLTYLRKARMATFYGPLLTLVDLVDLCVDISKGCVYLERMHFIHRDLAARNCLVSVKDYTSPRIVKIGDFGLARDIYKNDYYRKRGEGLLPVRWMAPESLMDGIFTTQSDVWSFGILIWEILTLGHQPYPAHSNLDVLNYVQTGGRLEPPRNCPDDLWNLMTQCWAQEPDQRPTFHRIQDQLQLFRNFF
T4 sequence (Q9UM73 1116-1392 L1196M/G1202R limits assumed): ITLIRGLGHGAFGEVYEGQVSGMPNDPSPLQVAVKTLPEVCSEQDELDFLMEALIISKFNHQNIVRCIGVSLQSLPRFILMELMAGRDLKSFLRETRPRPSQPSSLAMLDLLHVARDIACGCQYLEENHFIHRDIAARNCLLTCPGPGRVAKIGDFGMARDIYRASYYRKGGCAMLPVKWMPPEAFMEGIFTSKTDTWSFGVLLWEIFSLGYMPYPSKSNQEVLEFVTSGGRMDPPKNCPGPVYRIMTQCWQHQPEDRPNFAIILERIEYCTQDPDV
T2 sequence (P04629 510-781 limits assumed): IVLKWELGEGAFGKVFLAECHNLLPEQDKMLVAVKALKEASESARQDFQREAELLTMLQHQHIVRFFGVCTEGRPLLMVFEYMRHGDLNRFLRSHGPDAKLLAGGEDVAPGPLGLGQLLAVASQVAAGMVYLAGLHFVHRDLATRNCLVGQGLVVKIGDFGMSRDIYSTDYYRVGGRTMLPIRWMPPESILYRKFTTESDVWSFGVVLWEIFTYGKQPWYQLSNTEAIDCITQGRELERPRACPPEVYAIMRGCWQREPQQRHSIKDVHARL
T1 sequence (P08922 1883-2347 limits assumed): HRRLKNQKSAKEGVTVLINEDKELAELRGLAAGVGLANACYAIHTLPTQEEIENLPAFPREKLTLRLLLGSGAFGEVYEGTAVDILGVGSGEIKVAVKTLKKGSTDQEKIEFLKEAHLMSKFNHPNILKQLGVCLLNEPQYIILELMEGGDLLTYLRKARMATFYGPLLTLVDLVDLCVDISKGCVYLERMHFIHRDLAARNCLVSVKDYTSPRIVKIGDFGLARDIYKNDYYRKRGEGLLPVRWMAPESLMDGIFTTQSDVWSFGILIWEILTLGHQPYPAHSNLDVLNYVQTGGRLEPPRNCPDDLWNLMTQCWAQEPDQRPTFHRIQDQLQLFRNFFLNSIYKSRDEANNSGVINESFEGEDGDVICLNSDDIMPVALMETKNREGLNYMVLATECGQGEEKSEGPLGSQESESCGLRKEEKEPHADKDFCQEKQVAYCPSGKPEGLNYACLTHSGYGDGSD
T3 sequence (Q9UM73 with tags, fused parts or gaps): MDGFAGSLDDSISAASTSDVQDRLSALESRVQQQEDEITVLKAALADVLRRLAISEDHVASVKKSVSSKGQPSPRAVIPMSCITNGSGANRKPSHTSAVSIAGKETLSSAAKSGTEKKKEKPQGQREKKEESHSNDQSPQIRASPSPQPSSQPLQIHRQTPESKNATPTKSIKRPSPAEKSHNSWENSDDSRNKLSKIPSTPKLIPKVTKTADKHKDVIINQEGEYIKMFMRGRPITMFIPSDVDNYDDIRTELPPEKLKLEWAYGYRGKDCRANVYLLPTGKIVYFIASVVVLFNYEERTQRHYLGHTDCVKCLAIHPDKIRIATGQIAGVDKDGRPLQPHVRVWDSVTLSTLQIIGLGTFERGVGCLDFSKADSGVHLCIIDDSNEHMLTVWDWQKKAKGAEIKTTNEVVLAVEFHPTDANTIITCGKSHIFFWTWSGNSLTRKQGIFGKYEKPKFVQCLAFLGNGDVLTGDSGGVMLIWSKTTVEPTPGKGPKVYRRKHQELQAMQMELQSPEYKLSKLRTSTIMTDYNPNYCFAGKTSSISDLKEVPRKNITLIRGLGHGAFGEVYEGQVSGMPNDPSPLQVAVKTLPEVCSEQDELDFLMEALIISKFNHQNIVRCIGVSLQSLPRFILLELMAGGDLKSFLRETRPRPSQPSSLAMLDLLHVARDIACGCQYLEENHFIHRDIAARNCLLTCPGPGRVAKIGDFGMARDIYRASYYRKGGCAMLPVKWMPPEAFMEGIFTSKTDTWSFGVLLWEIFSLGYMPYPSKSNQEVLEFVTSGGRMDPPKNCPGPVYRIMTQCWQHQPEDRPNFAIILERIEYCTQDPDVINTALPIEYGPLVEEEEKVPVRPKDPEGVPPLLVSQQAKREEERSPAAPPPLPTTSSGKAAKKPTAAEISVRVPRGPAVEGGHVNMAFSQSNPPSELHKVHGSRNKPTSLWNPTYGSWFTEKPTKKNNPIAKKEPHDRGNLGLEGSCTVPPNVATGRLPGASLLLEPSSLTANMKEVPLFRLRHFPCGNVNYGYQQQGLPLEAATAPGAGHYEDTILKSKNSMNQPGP
T6 sequence (Q9UM73 1116-1392 limits assumed): as the sequence (Q9UM73 1116-1392 L1196M/G1202R limits assumed) above, with M81L, R87G counted along it
T9 sequence (P08922 1945-2222 G2032R limits assumed): as the sequence (P08922 1945-2222 limits assumed) above, with G88R counted along it
T8 sequence (P08922 1883-2347 G2032R limits assumed): as the sequence (P08922 1883-2347 limits assumed) above, with G150R counted along it
T10 sequence (Q9UM73 with tags, fused parts or gaps L1196M/G1202R): as the sequence (Q9UM73 with tags, fused parts or gaps) above, with L635M, G641R counted along it
T7 sequence (P04629 510-796 limits assumed): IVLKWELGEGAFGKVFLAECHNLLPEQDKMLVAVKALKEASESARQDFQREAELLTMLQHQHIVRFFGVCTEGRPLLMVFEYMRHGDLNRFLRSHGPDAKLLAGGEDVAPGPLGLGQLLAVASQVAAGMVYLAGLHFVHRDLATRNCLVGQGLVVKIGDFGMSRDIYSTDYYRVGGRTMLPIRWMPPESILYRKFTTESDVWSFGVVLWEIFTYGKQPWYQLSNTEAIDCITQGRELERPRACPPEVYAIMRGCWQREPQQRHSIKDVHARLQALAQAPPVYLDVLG

| Compound | IC50 [1] [nM] | Ki (TRKA-wt) [nM] | IC50 [2] [nM] | TPM3-NTRK1-wt/CD74-ROS1-G2032R selectivity ratio [3] | TPM3-NTRK1-wt/CD74-ROS1-wt selectivity ratio [3] | TPM3-NTRK1-wt/EML4-ALK-L1196M-G1202R selectivity ratio [3] | TPM3-NTRK1-wt/EML4-ALK-wt selectivity ratio [3] | Ki (ALK L1196M/G1202R) [nM] | Ki (ROS1-wt) [nM] | Ki (ALK-wt) [nM] | IC50 (Ba/F3 cells TPM3-TRKA) [nM] | IC50 [4] [nM] | Ki (ROS1-G2032R) [nM] | IC50 [5] [nM] |
| --- | --- | --- | --- | --- | --- | --- | --- | --- | --- | --- | --- | --- | --- | --- |
| C[C@H]1Oc2cc(cnc2N)-c2c(C#N)noc2Cn2nccc2-c2ccc(F)cc21 [Example 20, (19R)-22-amino-16-fluoro-19-methyl-5,20-dioxa-4,8,9,23-tetraazapentacyclo[19.3.1.0^2,^6.0^8,^12.0^13,^18]pentacosa-1(24),2(6),3,9,11,13(18), 4,16,21 (25),22-decaene-3-carbonitrile] | 0.1 to 50 | > 500 | 50 to 500 | A (bin A for very high selectivity, ratio >30-fold) | A (bin A for very high selectivity, ratio >30-fold) | C (bin C for moderate selectivity, ratio ≥1) | A (bin A for very high selectivity, ratio >30-fold) | 50 to 500 | < 50 | < 50 | > 500 | 50 to 500 | 50 to 500 | > 500 |
| CCc1noc2c1-c1cnc(N)c(c1)O[C@H](C)c1cc(F)ccc1-c1ccnn1C2 [Example 21, (19R)-3-ethyl-16-fluoro-19-methyl-5,20-dioxa-4,8,9,23-tetraazapentacyclo[19.3.1.0^2,^6.0^8,^12.0^13,^18]pentacosa-1(24),2(6),3,9,11,13,15,17,21 (25),22-decaen-22-amine] | 0.1 to 50 | 50 to 500 | 0.1 to 50 | B (bin B for high selectivity, ratio >10-fold) | A (bin A for very high selectivity, ratio >30-fold) | C (bin C for moderate selectivity, ratio ≥1) | A (bin A for very high selectivity, ratio >30-fold) | < 50 | < 50 | < 50 | 50 to 500 | 0.1 to 50 | < 50 | 50 to 500 |
| CCc1noc2c1-c1cnc(N)c(c1)O[C@H](C)c1cc(F)ccc1-c1nn(C)nc1C2 [Example 22, (19R)-3-ethyl-16-fluoro-10,19-dimethyl-5,20-dioxa-4,9,10,11,23-pentaazapentacyclo[19.3.1.0^2,^6.0^8,^12.0^13,^18]pentacosa-1(24),2(6),3,8,11,13,15,17,21(25),22-decaen-22-amine] | 0.1 to 50 | 50 to 500 | 0.1 to 50 | A (bin A for very high selectivity, ratio >30-fold) | A (bin A for very high selectivity, ratio >30-fold) | C (bin C for moderate selectivity, ratio ≥1) | B (bin B for high selectivity, ratio >10-fold) | < 50 | < 50 | < 50 | 50 to 500 | 0.1 to 50 | < 50 | 50 to 500 |
| CCc1noc2c1-c1cnc(N)c(c1)O[C@H](C)c1cc(F)ccc1-c1cn(C)nc1C2 [Example 23, (19R)-3ethyl-16-fluoro-10,19-dimethyl-5,20-dioxa-4,9,10,23-tetraazapentacyclo[19.3.1.0^2,^6.0^8,^12.0^13,^18]pentacosa-1(24),2(6),3,8,11,13,15,17,21(25),22-decaen-22-amine] | 0.1 to 50 | 50 to 500 | 0.1 to 50 | A (bin A for very high selectivity, ratio >30-fold) | A (bin A for very high selectivity, ratio >30-fold) | C (bin C for moderate selectivity, ratio ≥1) | B (bin B for high selectivity, ratio >10-fold) | < 50 | < 50 | < 50 | 50 to 500 | 0.1 to 50 | < 50 | 50 to 500 |
| C[C@H]1Oc2cc(cnc2N)-c2c(cnn2CC(F)F)Cc2nn(C)nc2-c2ccc(F)cc21 [Example 24, (19R)-3-(2,2-difluoroethyl)-16-fluoro-10,19-dimethyl-20oxa3,4,9,10,11,23-hexaazapentacyclo[19.3.1.0^2,^6.0^8,^12.0^13,^18]pentacosa-1(24),2(6),4,8,11,13,15,17,21 (25),22-decaen-22-amine] | 0.1 to 50 | > 500 | 0.1 to 50 | A (bin A for very high selectivity, ratio >30-fold) | A (bin A for very high selectivity, ratio >30-fold) | B (bin B for high selectivity, ratio >10-fold) | A (bin A for very high selectivity, ratio >30-fold) | < 50 | < 50 | < 50 | > 500 | 0.1 to 50 | < 50 | 50 to 500 |
